Reference: US6583132B1, “Oxidant scavengers” (Duke University, priority 1993, dated 2003)

Key:
aconitase = experiment: Aconitase activity in cortical cell lysates; type: cell-based, rat; conditions: 200 μM MnTBAP
Method: Tissue culture: Mixed neuronal and glial cultures were prepared from embryonic day-18 rat cerebral cortices (Sprague-Dawley, Zivic Miller). Briefly, the cerebral cortices were dissected and enzymatically dissociated by incubation in Ca^++-, Mg^++-free Hank's balanced salt solution (HBSS) supplemented with 10 mM HEPES and 0.25% trypsin for 20 min. at 37° C. The tissue was rinsed and dispersed into single cell suspension by gentle passage through a fire polished Pasteur pipette. The cell suspension was centrifuged and resuspended in Minimum Essential Media (MEM), containing Earle's salts supplemented with 3 g/L glucose, 5% horse serum and 5% fetal bovine serum (growth media). The cells were plated in poly-D-lysine-coated multi-well plates: 12-well plates for aconitase measurement, and 24 well plates for toxicity experiments. Cells were maintained at 37° C. in a humidified incubator with 5% CO2/95% air in growth media. Media was not replaced so as to reduce glial overgrowth and neuronal loss. Mature cells (14-17 days in vitro) were used for all experiments.
Cell treatment: The growth media was replaced with MEM supplemented with 25 mM glucose (MEM-g). For both neurotoxicity studies and aconitase measurement, cells were incubated in the designated treatment for the indicated length of time at 37° C. Unless otherwise specified, antagonists or SOD-mimetics were added 15 min. prior to agonists. For measurement of neurotoxicity, cells were incubated with treatments for 18 hr at 37° C. in MEM-g. To access the ability of antagonists to inhibit acute NMDA toxicity or rescue cells from an ongoing NMDA insult, an alternate paradigm of NMDA treatment was used in addition to the one describe above. In this paradigm, growth media was replaced with HBSS^+ (Ca^++-, Mg^++-free Hank's Balanced Salt Solution supplemented with 2 mM CaCl2, 1 mM NaHCO3, 10 mM HEPES and 5 μM glycine), cells were treated with vehicle or 100 μM NMDA for 15 min. after which HBSS^+ was replaced with MEM-g and cells were returned to the incubator for 18 additional hrs. Antagonsists or SOD-mimetics were added to the cells 15 min. before NMDA exposure or 15, 30 or 60 min. following final media replacement. For determination of Ca^++-dependence, cells were incubated in HBSS^+ with no added Ca^++. When kainate (KA) was used as an agonist, 100 μM D-APV was routinely included to block secondary NMDA receptor activation. Catalase (100 U/ml) was always included when xanthine plus xanthine oxidase (X+XO) was used as a treatment to rule out the contribution of hydrogen peroxide.
Aconitase measurement: For the measurement of aconitase, following treatment with agents, media was removed and cells lysed in ice-cold 50 mM, Tris/HCl, pH 7.4 containing 0.6 mM MnCl2, 1 mM L-cysteine, 1 mM citrate and 0.5% Triton-X 100. The aconitase activity of cell lysates was measured spectrophotometrically by monitoring the formation of cis-aconitate from isocitrate at 240 nm in 50 mM Tris/HCl, pH 7.4, containing 0.6 mM MnCl2 and 20 mM isocitrate at 25° C. (Kreb and Holzach, Biochem. J. 52:527 (1952); Gardner and Fridovich, J. Biol. Chem. 267:8757 (1992)). […] Aconitase activity in cortical cell lysates was inhibited by 0.1 mM potassium ferricyanide or by boiling of sample.

J774 macrophages [1] = experiment: Nitrite/nitrate production in J774 macrophages; type: cell-based; conditions: for inhibition of LPS-induced nitrite/nitrate accumulation: LPS 10 μg/ml; for inhibition of nitrite/nitrate accumulation: LPS and IFN
Method: (§1) Cell culture: J774 macrophages were cultured in DMEM medium, supplemented with L-glutamine (3.5 mmol/L) and 10% fetal calf serum. Cells were cultured in 96-well plates (200 μl medium/well) until confluence. To induce the inducible isoform of nitric oxide synthase (iNOS), fresh culture medium containing E. coli LPS (011:B4, 10 μg/ml) alone or in combination with murine γ-interferon (γ-IFN, 10 U/ml) was added in the presence or absence of the NOS inhibitor, the SOD mimetic of the combination of the two compounds for 24 h. Moreover, cells were exposed to the NO donor compounds S-nitroso-N-acetyl-DL-penicillamine (SNAP) (3 mM) and diethylamine:NO NONOate (DNO) (3 mM) for 24 h or to authentic peroxynitrite (1 mM) for 1 h). Nitride/nitrate concentration in the medium and mitochondrial respiration were then measured as described below.
Measurement of nitrite/nitrate production: Nitride/nitrate production, an indicator of NO synthesis, was measured in the supernatant. First, nitrate in the culture medium was reduced to nitrite by incubation with nitrate reductase (670 mU/ml) and NADPH (160 μM) at room temperature for 2 h. After 2 h, nitrite concentration in the samples were measured by the Griess reaction, by adding 100 μl of Griess reagent (1% sulfanilamide and 0.1% naphthylethylenediamide in 5% phosphoric acid) to 100 μl samples of conditioned medium. The optical density at 550 nm (OD550) was measured using a Spectramax 250 microplate reader (Molecular Devices, Sunnyvale, Calif.) Nitrate concentrations were calculated by comparison with OD550 of standard solutions of sodium nitrate prepared in culture medium. All measurements were corrected for the interference of MnTBAP at this wavelength.

[2] = tested on: Rat pulmonary epithelial cell cultures (L2); experiment: Paraquat-induced injury of L2 cells, LDH release; type: cell-based; conditions: 100 μM; Paraquat 2.5 mM, 48 hours
[3] = Paraquat-induced lung injury, BALF analysis; type: in vivo, Mice; conditions: 2.5 mg/ml nebulized 30 minutes twice daily for 2 days; paraquat 45 mg/kg ip; 48 hours
Method: Mice were treated with either paraquat (PQ, 45 mg/kg, ip) or saline (10 ml/kg, ip) and exposed to MnTBAP (2.5 mg/ml, nebulized into a 2 L chamber at 2 L/min for 30 minutes twice daily for 2 days) or room air. Mice were killed 48 hours after start of treatment and lung injury was assessed by analysis of bronchoalveolar lavage fluid (BALF). BALF damage markers used were lactate dehydrogenase (LDH, as units/L), proteins concentration (as mg/dl), and percent of polymorphonuclear leukocytes (PMN).

J774 macrophages [4] = experiment: Mitochondrial respiration (MTT) in J774 macrophages; type: cell-based
Method: as §1
Measurement of mitochondrial respiration: Cell respiration was assessed by the mitochondrial-dependent reduction of 3-(4,5-dimethylthiazol-2-yl)-2,5-diphenyltetrazolium bromide (MTT) to formazan. Cells in 96-well plates were incubated at 37° C. with MTT (0.2 mg/ml) for 1 hour. Culture medium was removed by aspiration and the cells were solubilized in DMSO (100 μl). The extent of reduction of MTT to formazan within cells was quantitated by the measurement of OD550. All measurements were corrected for the interference of MnTBAP at this wavelength.

Substance: Mn(III) tetrakis (4-benzoic acid)porphyrin [MnTBAP]
- PQ^++-, NMDA- and KA-mediated decreases of aconitase activity (aconitase): markedly inhibited
- nitrite/nitrate formation in the presence of L-NMA (J774 macrophages [1]): no additional effect
- inhibition of LPS-induced nitrite/nitrate accumulation (J774 macrophages [1]; 100 μM): 63%
- inhibition of nitrite/nitrate accumulation (J774 macrophages [1]; 100 μM): 25%
- nitrite/nitrate accumulation in response to DNO (J774 macrophages [1]; 300 μM): slight inhibition
- nitrite/nitrate accumulation in response to SNAP (J774 macrophages [1]; 300 μM): did not inhibit
- inhibition of LPS-induced nitrite/nitrate accumulation (J774 macrophages [1]; 300 μM): 86%
- inhibition of nitrite/nitrate accumulation (J774 macrophages [1]; 300 μM): 61%
- change of inhibition of nitrite/nitrate accumulation when applied 6 h after LPS (J774 macrophages [1]; LPS-stimulated macrophages): more than 50%
- paraquat-induced LDH release [2]: decrease paraquat-induced LDH release
- protection against paraquat-induced lung injury [3]: partial protection
- suppression of mitochondrial respiration by peroxynitrite (J774 macrophages [4]; 1 mM peroxynitrite, 1 h): partially and dose dependently prevented
- immunostimulation-induced suppression of mitochondrial respiration (J774 macrophages [4]; LPS-treated and LPS and IFN-treated cells, 24 h): dose-dependent, partial restoration
- suppression of mitochondrial respiration by NO donors SNAP and DNO (J774 macrophages [4]; SNAP, DNO 3 mM, 24 h): partially and dose dependently prevented
